In patent publication US11325899B2, “Benzofurane and benzothiophene derivatives as PGE2 receptor modulators” (IDORSIA PHARMACEUTICALS LTD, priority 2017, dated 2022):

Assays:
Format in all cases: cell-based
PTGER4 (EP4) = biological target: T1, PTGER4 (EP4) (Homo sapiens, UniProt P35408); assay: hEP4 b-arrestin assay (PathHunter HEK 293 PTGER4 b-arrestin cells); conditions: antagonistic activity, beta-arrestin assay; read-out: hEP4 b-arr IC50
T1 construct: host or cells: HEK 293 (PathHunter PTGER4 b-arrestin cell line)
T1 sequence (P35408 whole entry): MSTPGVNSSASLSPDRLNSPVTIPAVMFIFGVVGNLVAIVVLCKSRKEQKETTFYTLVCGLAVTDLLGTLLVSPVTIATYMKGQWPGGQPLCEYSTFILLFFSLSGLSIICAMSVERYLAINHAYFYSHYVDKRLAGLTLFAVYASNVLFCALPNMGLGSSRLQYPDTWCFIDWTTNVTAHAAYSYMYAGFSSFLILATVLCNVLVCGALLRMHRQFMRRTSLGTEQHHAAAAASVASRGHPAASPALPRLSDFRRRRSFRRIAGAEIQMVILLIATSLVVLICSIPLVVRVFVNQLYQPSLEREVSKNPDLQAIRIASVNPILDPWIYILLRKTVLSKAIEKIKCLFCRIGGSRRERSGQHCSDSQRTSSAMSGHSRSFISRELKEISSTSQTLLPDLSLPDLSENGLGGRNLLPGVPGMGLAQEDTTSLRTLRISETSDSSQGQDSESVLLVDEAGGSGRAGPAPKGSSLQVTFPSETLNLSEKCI
How it was run: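 β-Arrestin recruitment to EP4 was read as enzyme-fragment-complementation chemiluminescence in stably transfected HEK 293 cells. After 15 min compound preincubation at 37 °C (ranges 10 μM–2 nM or 1 μM–0.2 nM), cells were stimulated 120 min with PGE2 at 20 nM, its EC80. IC50 values were fitted from duplicates, with repeat measurements averaged.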

EP2 receptor = biological target: T2, EP2 receptor (Homo sapiens, UniProt P43116); assay: hEP2 cAMP assay (SF295 glioblastoma cells, HTRF cAMP, PGE2 stimulation); conditions: antagonistic activity
T2 construct: SF295 glioblastoma cells express high endogenous EP2 and no EP4; host or cells: SF295 glioblastoma cells
T2 sequence (P43116 whole entry): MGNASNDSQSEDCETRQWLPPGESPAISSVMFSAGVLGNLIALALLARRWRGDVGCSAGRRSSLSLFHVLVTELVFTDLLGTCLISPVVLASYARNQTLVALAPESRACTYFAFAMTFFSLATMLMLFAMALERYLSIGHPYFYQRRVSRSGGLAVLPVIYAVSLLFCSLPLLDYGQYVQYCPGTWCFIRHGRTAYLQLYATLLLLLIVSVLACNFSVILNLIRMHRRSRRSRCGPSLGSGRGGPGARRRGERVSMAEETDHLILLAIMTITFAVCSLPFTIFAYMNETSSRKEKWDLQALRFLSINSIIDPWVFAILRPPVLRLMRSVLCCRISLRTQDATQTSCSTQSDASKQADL
Description: (§1) The antagonistic activities of the compounds of formula (I) on the EP2 and EP4 receptors are also determined in accordance with the following experimental method.
(§2) Human tumor cell lines expressing endogenously either EP4 or EP2 are used and cAMP accumulation in cells upon PGE2 stimulation is monitored. SF295 glioblastoma cells express high endogenous EP2 and no EP4, whereas BT549 breast cancer cells, express high endogenous EP4 levels and very low EP2 levels.
(§3) As a detection method for cAMP the HTRF (homogeneous time resolved fluorescence) Cisbio kit (HTRF cAMP dynamic 2 kit 20′000 tests Cisbio Cat. #62AM4PEC) was used, which is based on a competitive immunoassay using a Cryptate-labeled anti-cAMP antibody and d2-labeled cAMP. Native cAMP produced by cells or unlabeled cAMP (for the standard curve) compete with exogenously added d2-labeled cAMP (acceptor) for binding to monoclonal anti-cAMP-Eu3+ Cryptate (donor). A FRET signal (Fluorescence Resonance Energy Transfer) is obtained only if the labeled anti-cAMP antibody binds the d2 labelled cAMP, thus the specific signal (i.e. energy transfer) is inversely proportional to the concentration of cAMP in the standard or sample.
(§4) The SF295 cells (NCI/No. 0503170) are detached from culture dishes with a cell dissociation buffer (Invitrogen, 13151-014), and collected in growing medium (GM: RPM1640 (Invitrogen 21875)/10% FCS, 1% Penicilin/streptomycin). Cells are counted washed and resuspended in assay buffer (AB; HBSS, 20 mM HEPES, 0.2% BSA; 2 mM IBMX). 4′000 cells in 5 μl of AB are seeded per well of a small volume 384 well plate (black with flat bottom, Greiner 784076).
Stock solutions of test compounds are made at a concentration of 10 mM in DMSO, and serially diluted in DMSO to concentrations required for inhibition dose response curves (tested concentration range 30 μM-0.4 nM; 30 μM-0.015 nM or 1 μM-0.01 nM).
PGE2 (Cayman 14010, stock solution: 75 μM in DMSO) is used as agonist at 75 nM final concentration, corresponding to EC80.
(§5) Two point five microliters of diluted compounds are transferred into the assay plate. Plate is pre-incubated 45 minutes at room temperature. Subsequently, 2.5 microliters of PGE2 (final conc. 75 nM) are transferred into the assay plate. Plate is incubated 30 minutes at room temperature. Five μl of each donor (anti-cAMP cryptate) and acceptor (cAMP-d2) are added and the plate is incubated another hour at room temperature in the dark and then read using a BMG LABTECH PHERAstar reader (Excitation: 337 nm, Emission: 620 and 665 nm).
(§6) The obtained Delta F (fluorescence) values (665 nm/620 nM) are converted into % cAMP values using the measurements of the cAMP calibrator provided in the kit. For each compound concentration the percentage of cAMP compared to DMSO control value as average±STDEV (each concentration is measured in duplicate) is calculated.
(§7) IC50 values and curves are generated with XLfit software (IDBS) using Dose-Response One Site model 203. When compounds were measured multiple times, mean values are given.

EP4 receptor = biological target: T3, EP4 receptor (Homo sapiens, UniProt P35408); assay: hEP4 cAMP assay (BT549 breast cancer cells, HTRF cAMP, PGE2 stimulation); conditions: antagonistic activity, PGE2 6 nM (EC80)
T3 construct: BT549 breast cancer cells, express high endogenous EP4 levels and very low EP2 levels; host or cells: BT549 breast cancer cells
T3 sequence (P35408 whole entry): as the sequence (P35408 whole entry) above
Description: as §1, §2, §3
as §4, with “BT549” for “SF295”, “0507282)” for “0503170)”, “RPMI1640” for “RPM1640”
Stock solutions of test compounds are made at a concentration of 10 mM in DMSO, and serially diluted in DMSO to concentrations required for inhibition dose response curves (tested concentration range 30 μM-0.4 nM; 30 μM-0.015 nM or 1 uM-0.01 nM).
PGE2 (Cayman 14010, stock solution: 6 μM in DMSO) is used as agonist at 6 nM final concentration, corresponding to EC80.
as §5, with “6” for “75”, “(Excitation:337” for “(Excitation: 337”, “Emission:620” for “Emission: 620”
as §6, with “F(fluorescence)” for “F (fluorescence)”
as §7

Molecule	IC50 (PTGER4 (EP4)) [nM]	IC50 (EP2 receptor) [nM]	IC50 (EP4 receptor) [nM]
CCOc1cc(-c2cc(NCCc3c(C#N)sc4c(OC)cccc34)ncn2)sc1C(=O)O [Example 27, 5-{6-[2-(2-Cyano-7-methoxy-benzo[b]thiophen-3-yl)-ethylamino]-pyrimidin-4-yl}-3-ethoxy-thiophene-2-carboxylic acid]	2	11	4
CCOc1cc(-c2cc(NCCc3c(C)oc4c(OC)cc(Cl)cc34)ncn2)ccc1CC(=O)O [Example 106, (4-{6-[2-(5-Chloro-7-methoxy-2-methyl-benzofuran-3-yl)-ethylamino]-pyrimidin-4-yl}-2-ethoxy-phenyl)-acetic acid]	159	396	247
CCOc1cc(-c2cc(NCCc3c(C)sc4c(Cl)ccc(Cl)c34)ncn2)ccc1CC(=O)O [Example 114, (4-{6-[2-(4,7-Dichloro-2-methyl-benzo[b]thiophen-3-yl)-ethylamino]-pyrimidin-4-yl}-2-ethoxy-phenyl)-acetic acid]	246	477	781
(4-{6-[2-(4,5-Difluoro-7-methoxy-2-methyl-benzofuran-3-yl)-ethylamino]-pyrimidin-4-yl}-2-ethoxy-phenoxy)-acetic acid [Example 123]	142	359	219

Continued, values first:

IC50 (PTGER4 (EP4)) [nM]	IC50 (EP2 receptor) [nM]	IC50 (EP4 receptor) [nM]	Molecule
202	392	323	Cc1sc2c(C)cc(F)cc2c1CCNc1cc(-c2ccc(-c3cc(O)no3)cc2)ncn1 [Example 81, 5-(4-{6-[2-(5-Fluoro-2,7-dimethyl-benzo[b]thiophen-3-yl)-ethylamino]-pyrimidin-4-yl}-phenyl)-isoxazol-3-ol [tautomeric form: 5-(4-(6-((2-(5-fluoro-2,7-dimethylbenzo[b]thiophen-3-yl)ethyl)amino)pyrimidin-4-yl)phenyl)isoxazol-3(2H)-one]]
484	647	855	CCOc1cc(-c2cc(NCCc3c(C)sc4c(C)cc(F)cc34)ncn2)sc1CC(=O)OC [Example 95, (3-Ethoxy-5-{6-[2-(5-fluoro-2,7-dimethyl-benzo[b]thiophen-3-yl)-ethylamino]-pyrimidin-4-yl}-thiophen-2-yl)-acetic acid methyl ester]
197	561	433	CCOc1cc(-c2cc(NCCc3c(C)sc4c(C)ccc(Cl)c34)ncn2)ccc1CC(=O)O [Example 111, (4-{6-[2-(4-Chloro-2,7-dimethyl-benzo[b]thiophen-3-yl)-ethylamino]-pyrimidin-4-yl}-2-ethoxy-phenyl)-acetic acid]
209	284	765	CCOc1cc(-c2cc(NCCc3c(C)sc4c(Cl)cc(F)cc34)ncn2)ccc1CC(=O)O [Example 113, (4-{6-[2-(7-Chloro-5-fluoro-2-methyl-benzo[b]thiophen-3-yl)-ethylamino]-pyrimidin-4-yl}-2-ethoxy-phenyl)-acetic acid]
3	11	5	CCOc1cc(-c2cc(NCCc3c(C)sc4c(C)cc(F)cc34)ncn2)sc1-c1noc(=O)[nH]1 [Example 159, 3-(3-Ethoxy-5-{6-[2-(5-fluoro-2,7-dimethyl-benzo[b]thiophen-3-yl)-ethylamino]-pyrimidin-4-yl}-thiophen-2-yl)-[1,2,4]oxadiazol-5(4H)-one [tautomeric form: 3-(3-ethoxy-5-(6-((2-(5-fluoro-2,7-dimethylbenzo[b]thiophen-3-yl)ethyl)amino)pyrimidin-4-yl)thiophen-2-yl)-[1,2,4]oxadiazol-5-ol]]
